# Measured values reported in US11214565B2, “Compound, compositions, and methods” (Denali Therapeutics Inc., priority 2015, dated 2022).
# Molecular target: LRRK2 G2019S enzyme (Homo sapiens (Human), UniProt Q5S007, G2019S)
# Test: LRRK2 G2019S TR-FRET biochemical kinase assay (LRRKtide substrate)
# Details: 5 nM LRRK2, 134 μM ATP, 60 minute reaction, 23° C.
# Procedure, shortened: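 TR-FRET phospho-LRRKtide readout (2 nM antibody, 10 mM EDTA, 60 min) after a 60 min, 23 °C kinase reaction. The reaction used 134 μM ATP and 5 nM enzyme in pH 7.5 Tris/MgCl2/EGTA/DTT buffer, with compound and enzyme-substrate mix preincubated for 20 min beforehand.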
# LRRK2 G2019S enzyme, sequence (Q5S007 whole entry G2019S): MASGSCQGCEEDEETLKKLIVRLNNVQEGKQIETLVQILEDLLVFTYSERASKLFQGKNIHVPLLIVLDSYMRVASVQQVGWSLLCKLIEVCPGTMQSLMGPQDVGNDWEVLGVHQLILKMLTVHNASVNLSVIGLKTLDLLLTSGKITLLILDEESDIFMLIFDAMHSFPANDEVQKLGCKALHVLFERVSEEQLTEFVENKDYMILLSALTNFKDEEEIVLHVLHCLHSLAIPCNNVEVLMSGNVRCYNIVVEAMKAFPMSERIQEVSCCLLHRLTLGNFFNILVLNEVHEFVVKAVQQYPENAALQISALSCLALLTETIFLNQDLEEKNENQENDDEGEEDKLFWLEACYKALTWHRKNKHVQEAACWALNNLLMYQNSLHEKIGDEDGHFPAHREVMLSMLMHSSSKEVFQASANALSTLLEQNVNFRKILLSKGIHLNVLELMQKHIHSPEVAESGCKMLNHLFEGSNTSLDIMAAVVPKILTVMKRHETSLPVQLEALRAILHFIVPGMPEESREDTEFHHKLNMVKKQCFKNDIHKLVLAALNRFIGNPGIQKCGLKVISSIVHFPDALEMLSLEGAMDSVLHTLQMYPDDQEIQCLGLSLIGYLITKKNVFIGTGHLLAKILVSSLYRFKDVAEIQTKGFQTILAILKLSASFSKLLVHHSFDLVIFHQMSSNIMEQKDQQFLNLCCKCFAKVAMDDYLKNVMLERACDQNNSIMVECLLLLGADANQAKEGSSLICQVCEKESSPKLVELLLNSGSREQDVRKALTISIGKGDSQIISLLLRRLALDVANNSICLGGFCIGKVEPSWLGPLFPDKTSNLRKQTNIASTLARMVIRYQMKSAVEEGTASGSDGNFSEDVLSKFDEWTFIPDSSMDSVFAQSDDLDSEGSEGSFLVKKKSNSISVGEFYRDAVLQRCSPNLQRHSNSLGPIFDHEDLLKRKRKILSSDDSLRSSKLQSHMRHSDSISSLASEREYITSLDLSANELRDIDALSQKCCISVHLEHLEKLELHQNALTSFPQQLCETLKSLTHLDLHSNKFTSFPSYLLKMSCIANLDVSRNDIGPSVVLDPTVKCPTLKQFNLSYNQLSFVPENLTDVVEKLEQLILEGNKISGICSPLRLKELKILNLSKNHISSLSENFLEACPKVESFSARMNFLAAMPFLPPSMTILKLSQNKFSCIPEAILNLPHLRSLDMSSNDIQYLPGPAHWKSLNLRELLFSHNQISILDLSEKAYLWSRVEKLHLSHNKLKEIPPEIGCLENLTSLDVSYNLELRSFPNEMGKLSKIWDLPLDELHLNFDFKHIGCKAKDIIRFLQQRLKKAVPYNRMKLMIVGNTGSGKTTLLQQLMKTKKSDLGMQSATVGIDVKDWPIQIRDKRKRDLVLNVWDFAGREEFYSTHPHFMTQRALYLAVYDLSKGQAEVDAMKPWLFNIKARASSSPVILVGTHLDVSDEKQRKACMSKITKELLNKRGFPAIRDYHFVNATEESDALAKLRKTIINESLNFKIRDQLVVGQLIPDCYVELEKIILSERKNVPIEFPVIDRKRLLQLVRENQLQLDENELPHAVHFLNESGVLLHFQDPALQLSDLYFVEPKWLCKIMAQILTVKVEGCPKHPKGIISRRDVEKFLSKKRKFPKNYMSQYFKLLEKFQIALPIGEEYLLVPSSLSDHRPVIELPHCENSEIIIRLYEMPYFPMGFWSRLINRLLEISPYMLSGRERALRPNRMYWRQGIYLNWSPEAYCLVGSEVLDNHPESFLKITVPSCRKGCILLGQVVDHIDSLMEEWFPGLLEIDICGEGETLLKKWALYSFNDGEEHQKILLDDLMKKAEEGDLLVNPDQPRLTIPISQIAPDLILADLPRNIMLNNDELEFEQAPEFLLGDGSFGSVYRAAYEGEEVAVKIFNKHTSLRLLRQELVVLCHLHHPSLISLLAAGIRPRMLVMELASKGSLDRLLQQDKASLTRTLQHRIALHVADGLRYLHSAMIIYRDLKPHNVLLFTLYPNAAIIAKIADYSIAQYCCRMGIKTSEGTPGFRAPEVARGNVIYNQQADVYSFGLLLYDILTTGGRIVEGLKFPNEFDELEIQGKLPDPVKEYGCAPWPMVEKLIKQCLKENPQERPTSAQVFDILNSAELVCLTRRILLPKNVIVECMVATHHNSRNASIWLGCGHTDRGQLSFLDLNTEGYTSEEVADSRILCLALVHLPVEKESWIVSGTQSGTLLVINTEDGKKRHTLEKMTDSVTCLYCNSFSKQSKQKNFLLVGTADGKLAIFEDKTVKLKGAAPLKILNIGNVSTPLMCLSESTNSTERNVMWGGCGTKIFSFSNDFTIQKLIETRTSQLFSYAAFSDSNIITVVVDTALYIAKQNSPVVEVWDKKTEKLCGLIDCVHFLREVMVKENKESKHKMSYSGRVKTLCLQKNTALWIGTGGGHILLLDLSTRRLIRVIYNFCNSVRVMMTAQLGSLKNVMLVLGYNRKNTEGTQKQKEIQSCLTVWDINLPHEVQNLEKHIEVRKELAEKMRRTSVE
IC50 (Table D-4) [nM],Compound,also measured
< 30,"CNc1nc(Nc2cnn(CC3(Cn4cncn4)CC3)c2C)ncc1C(F)(F)F [Compound D-6, N2-(1-((1-((1H-1,2,4-triazol-1-yl)methyl)cyclopropyl)methyl)-5-methyl-1H-pyrazol-4-yl)-N4-methyl-5-(trifluoromethyl)pyrimidine-2,4-diamine]",–
< 30,CNc1nc(Nc2cnn([C@H]3C[C@@H](n4cc(F)cn4)C3)c2C)ncc1Br [Compound D-192],–
< 30,"CCNc1nc(Nc2cnn(CCOC(F)F)c2C)ncc1C(F)(F)F [Compound D-15, N2-[1-[2-(difluoromethoxy)ethyl]-5-methyl-pyrazol-4-yl]-N4-ethyl-5-(trifluoromethyl)pyrimidine-2,4-diamine]",–
< 30,CCNc1nc(Nc2cnn(C3CCc4ncsc43)c2C)ncc1C(F)(F)F [Compound D-97],–
< 30,CNc1nc(Nc2cnn(C3(CC#N)CC3)c2C)ncc1C(F)(F)F [Compound D-144],–
< 30,CCNC(=O)C(F)(F)n1cc(Nc2ncc(C(F)(F)F)c(NC)n2)c(C)n1 [Compound D-160],–
< 30,CCNc1nc(Nc2cnn(C3Cc4nccn4C3)c2C)ncc1C(F)(F)F [Compound D-60],–
< 30,"CNc1nc(Nc2cnn(C[C@@H](C)OC(F)F)c2C)ncc1C(F)(F)F [Compound D-19, N2-[1-[(2R)-2-(difluoromethoxy)propyl]-5-methyl-pyrazol-4-yl]-N4-methyl-5-(trifluoromethyl)pyrimidine-2,4-diamine]",–
30 to 60,"CNc1nc(Nc2cn(CCOC(F)F)nc2C)ncc1C(F)(F)F [Compound D-10, N2-[1-[2-(difluoromethoxy)ethyl]-3-methyl-pyrazol-4-yl]-N4-methyl-5-(trifluoromethyl)pyrimidine-2,4-diamine]",–
< 30,CCNc1nc(Nc2cnn([C@H]3C[C@H](c4cocn4)C3)c2C)ncc1C(F)(F)F [Compound D-84],–
< 30,CNc1nc(Nc2cn([C@H]3C[C@H](c4nncs4)C3)nc2C)ncc1C(F)(F)F [Compound D-167],–
< 30,CNc1nc(Nc2cnn([C@H]3C[C@H](n4nccn4)C3)c2C)ncc1C(F)(F)F [Compound D-162],–
< 30,"CNc1nc(Nc2cn(C3CCCn4ccnc43)nc2C)ncc1C(F)(F)F [Compound D-34, N^4-methyl-N^2-(3-methyl-1-(5,6,7,8-tetrahydroimidazo[1,2-a]pyridin-8-yl)-1H-pyrazol-4-yl)-5-(trifluoromethyl)pyrimidine-2,4-diamine]",–
< 30,CNc1nc(Nc2cnn(C3CCC(n4ccnn4)C3)c2C)ncc1C(F)(F)F [Compound D-124],–
< 30,CCNc1nc(Nc2cnn([C@H]3C[C@@H](S(C)(=O)=O)C3)c2C)ncc1C(F)(F)F [Compound D-147],–
< 30,CCNc1nc(Nc2cn(C3Cc4nccn4C3)nc2C)ncc1C(F)(F)F [Compound D-74],–
< 30,CCNc1nc(Nc2cnn([C@@H]3CCn4ccnc43)c2C)ncc1C(F)(F)F [Compounds D-152],–
< 30,CCNc1nc(Nc2cnn([C@H]3CCn4ccnc43)c2C)ncc1C(F)(F)F [Compounds D-172],–
< 30,"CNc1nc(Nc2cnn(CCOC(F)F)c2C)ncc1C(F)(F)F [Compound D-9, N2-[1-[2-(difluoromethoxy)ethyl]-5-methyl-pyrazol-4-yl]-N4-methyl-5-(trifluoromethyl)pyrimidine-2,4-diamine]",–
< 30,CCNc1nc(Nc2cnn([C@H]3C[C@@H](n4ncnc4C(F)(F)F)C3)c2C)ncc1C(F)(F)F [Compound D-118],–
< 30,CNc1nc(Nc2cnn([C@](C)(C#N)C(F)F)c2C)ncc1C(F)(F)F [Compounds D-199],–
< 30,CNC(=O)C(F)(F)n1cc(Nc2ncc(C(F)(F)F)c(NC)n2)c(C)n1 [Compound D-159],–
< 30,"CNc1nc(Nc2cnn([C@H]3C[C@H](OC(F)F)C3)c2C)ncc1C(F)(F)F [Compound D-25, trans-N2-[1-[3-(difluoromethoxy)cyclobutyl]-5-methyl-pyrazol-4-yl]-N4-methyl-5-(trifluoromethyl)pyrimidine-2,4-diamine]",–
< 30,CCNc1nc(Nc2cnn(C3CCn4ccnc43)c2Cl)ncc1C(F)(F)F [Compound D-104],–
< 30,CNc1nc(Nc2cnn([C@H]3C[C@H](c4nncs4)C3)c2C)ncc1C(F)(F)F [Compound D-168],–
< 30,CCNc1nc(Nc2cnn([C@H]3CCCn4ccnc43)c2C)ncc1C(F)(F)F [Compounds D-151],–
> 60,CNc1nc(Nc2cnn([C@@H]3CCc4c(C)noc43)c2C)ncc1C(F)(F)F [Compounds D-173],–

# The remaining lines, values behind:
Compound,IC50 (Table D-4) [nM],also measured
"Cc1c(Nc2ncc(C(F)(F)F)c(C3CC3)n2)cnn1C1CCOCC1 [Compound A-24, 4-cyclopropyl-N-(5-methyl-1-tetrahydropyran-4-yl-pyrazol-4-yl)-5-(trifluoromethyl)pyrimidin-2-amine]",–,IC50 (Table A-2): < 30 nM
"CNc1nc(Nc2cn(C(C)(C)C#N)nc2C)nc2[nH]cc(F)c12 [Compound B-10, 2-(4-((5-fluoro-4-(methylamino)-7H-pyrrolo[2,3-d]pyrimidin-2-yl)amino)-3-methyl-1H-pyrazol-1-yl)-2-methylpropanenitrile]",–,IC50 (Table B-2): 1 to 2 nM
"Cc1nn(C2COC2)cc1Nc1ncc(C(F)(F)F)c(C2CC2)n1 [Compound A-14, 4-cyclopropyl-N-[3-methyl-1-(oxetan-3-yl)pyrazol-4-yl]-5-(trifluoromethyl)pyrimidin-2-amine]",–,IC50 (Table A-2): < 30 nM
"c1nc2c(C3CC3)nc(Nc3cnn4c3CC3(CC3)C4)nc2[nH]1 [Compound C-8, N-(6-cyclopropyl-9H-purin-2-yl)spiro[4,6-dihydropyrrolo[1,2-b]pyrazole-5,1 cyclopropane]-3-amine]",–,IC50 (Table C-2): < 50 nM
"Cc1nn(C(C)(C)C#N)cc1Nc1ncc(Cl)c(C2CCC2)n1 [Compound A-32, 2-(4-((5-chloro-4-cyclobutylpyrimidin-2-yl)amino)-3-methyl-1H-pyrazol-1-yl)-2-methylpropanenitrile]",–,IC50 (Table A-2): > 60 nM
"Cc1nn(C(C)(C)C#N)cc1Nc1ncc(C(F)(F)F)c(C2CCC2)n1 [Compound A-11, 2-[4-[[4-cyclobutyl-5-(trifluoromethyl)pyrimidin-2-yl]amino]-3-methyl-pyrazol-1-yl]-2-methyl-propanenitrile]",–,IC50 (Table A-2): 30 to 60 nM
"COc1nc(Nc2cn(C(C)(C)C#N)nc2C)nc2[nH]cc(F)c12 [Compound B-11, 2-[4-[(5-fluoro-4-methoxy-7H-pyrrolo[2,3-d]pyrimidin-2-yl)amino]-3-methyl-pyrazol-1-yl]-2-methyl-propanenitrile]",–,IC50 (Table B-2): 1 to 2 nM
"COc1nc(Nc2cn(C(C)(C)C#N)nc2C)nc2[nH]cnc12 [Compound B-7, 2-(4-((6-methoxy-9H-purin-2-yl)amino)-3-methyl-1H-pyrazol-1-yl)-2-methylpropanenitrile]",–,IC50 (Table B-2): 2 to 20 nM
Cc1nn(C(CF)CF)cc1Nc1nc(C2CC2)c2c(Cl)c[nH]c2n1 [Compound C-55],–,IC50 (Table C-2): < 50 nM
"Cc1nn([C@@H]2CCn3cnnc32)cc1Nc1ncc(C(F)(F)F)c(C2CC2)n1 (single isomer, unassigned) [Compound A-82]",–,IC50 (Table A-2): < 30 nM
"Cc1nn(C(C)(C)c2ncn(C)n2)cc1Nc1ncc(Cl)c(C2CC2)n1 [Compound A-35, 5-chloro-4-cyclopropyl-N-(3-methyl-1-(2-(1-methyl-1H-1,2,4-triazol-3-yl)propan-2-yl)-1H-pyrazol-4-yl)pyrimidin-2-amine]",–,IC50 (Table A-2): < 30 nM
Cc1nn(C(C)(C)c2ncn(C)n2)cc1Nc1nc(C2CC2)c2c(Cl)c[nH]c2n1 [Compound C-28],–,IC50 (Table C-2): < 50 nM
Cc1c(Nc2ncc(C(F)(F)F)c(C3CC3)n2)cnn1[C@@H]1CCc2cn[nH]c21 [Compounds A-84],–,IC50 (Table A-2): < 30 nM
"CNc1nc(Nc2cn(C(C)(C)C#N)nc2C)nc2[nH]cc(Cl)c12 [Compound B-6, 2-[4-[[5-Chloro-4-(methylamino)-7H-pyrrolo[2,3-d]pyrimidin-2-yl]amino]-3-methyl-pyrazol-1-yl]-2-methyl-propanenitrile]",–,IC50 (Table B-2): ≤ 1 nM
"Cc1nn(C)cc1Nc1nc(C2CC2)c2nc[nH]c2n1 [Compound C-6, 6-cyclopropyl-N-(1,3-dimethylpyrazol-4-yl)-9H-purin-2-amine]",–,IC50 (Table C-2): < 50 nM
"Cc1nn([C@H]2CC3C(C2)[C@H]3c2ncnn2C)cc1Nc1ncc(C(F)(F)F)c(C2CC2)n1 (stereo partly drawn) [Compound A-70, 4-cyclopropyl-N-(3-methyl-1-((1R,3s,5S,6r)-6-(1-methyl-1H-1,2,4-triazol-5-yl)bicyclo[3.1.0]hexan-3-yl)-1H-pyrazol-4-yl)-5-(trifluoromethyl)pyrimidin-2-amine]",–,IC50 (Table A-2): < 30 nM
Cn1cnc(C(C)(C)n2cc(Nc3ncc(C(F)(F)F)c(C4CC4)n3)c(CO)n2)n1 [Compound A-66],–,IC50 (Table A-2): > 60 nM
"COc1nc(Nc2cnn(C)c2C)nc2[nH]cc(Cl)c12 [Compound B-8, 5-chloro-N-(1,5-dimethylpyrazol-4-yl)-4-methoxy-7H-pyrrolo[2,3-d]pyrimidin-2-amine]",–,IC50 (Table B-2): 1 to 2 nM
Cc1nn(C2CC3CC3C2)cc1Nc1nc(C2CC2)c2c(C#N)c[nH]c2n1 (centres unmarked) [Compound C-44],–,IC50 (Table C-2): < 50 nM
"Cc1nn(C(C)(C)C#N)cc1Nc1ncc(C(F)(F)F)c(-c2cnn(C)c2)n1 [Compound A-9, 2-methyl-2-(3-methyl-4-((4-(1-methyl-1H-pyrazol-4-yl)-5-(trifluoromethyl)pyrimidin-2-yl)amino)-1H-pyrazol-1-yl)propanenitrile]",–,IC50 (Table A-2): 30 to 60 nM
Cc1c(Nc2nc(C3CC3)c3nc[nH]c3n2)cnn1CCOC(F)F [Compound C-48],–,IC50 (Table C-2): < 50 nM
"Cc1c(Nc2ncc(C(F)(F)F)c(C3CC3)n2)cnn1C1CCC(=O)N(C)C1 (centres unmarked) [Compound A-26, 5-(4-((4-cyclopropyl-5-(trifluoromethyl)pyrimidin-2-yl)amino)-5-methyl-1H-pyrazol-1-yl)-1-methylpiperidin-2-one]",–,IC50 (Table A-2): < 30 nM
Cc1nn(CC2CC2)cc1Nc1nc(C2CC2)c2nc[nH]c2n1 [Compound C-52],–,IC50 (Table C-2): < 50 nM
